Tests used:
protein kinase B (AKT) = experiment: Activation (Ser473 phosphorylation) of AKT in neonatal rat cardiomyocytes, Western blot; format: cell-based; conditions: cardiomyocyte cells, 10^−9 mol/L, five minutes
Method: Wistar neonatal rat cardiomyocytes were cultured in regular growth medium consisting of DEMEM medium supplemented with 10% horse serum, 5% fetal bovine serum, 1% penicillin/streptomycin and 0.1% fibroblast inhibitor. The cells were maintained in serum free medium for three hours before the start of treatment. The study was carried out acutely, for five minutes using a concentration of 10^−9 mol/L of the following drugs diluted in culture medium: Ang-(1-7), arg0-Ang-(1-7) and insulin. Cells incubated with culture medium only were used as control group.
Total protein was isolated from cardiomyocytes cells with lysis buffer containing protease inhibitors cocktail (Days-Peixoto et al., Hypertension 52: 542-548, 2008). Sixty micrograms of total protein was separated by electrophoresis, transferred to a nitrocellulose membrane, blocked with 5% skimmed milk powder diluted in Tris-saline containing 0.1% Tween, and finally incubated overnight with anti-AKT polyclonal antibody (1:1000), anti-Ser473 phospho-Akt (1:600), anti-glyceraldehyde-3-phosphate dehydrogenase (GAPDH—1:1000). Subsequently, the membranes were incubated with fluorescently labeled secondary antibody (1:10000), followed by identification and quantitation by the Odyssey program (LI-COR).
The results are presented as mean+E.PM. […]

conscious SHR = experiment: Acute IV bolus administration, MAP and HR in conscious SHR; format: in vivo, rat
Method: Wistar and SHR rats were anesthetized with 2.5% tribromoethanol, intraperitoneally (1 mL/100 g). For femoral artery cannulation, cannulas made by connecting 15 cm polyethylene PESO to 4 cm of PE10 polyethylene were used, filled with saline solution (NaCl 0.9%) and heparin (100 IU/0.1 mL). After the animal was placed supine on the operating table, a trichotomy of the right inguinal region of the animal was performed. A small skin incision was made; the femoral neurovascular bundle was located and the femoral artery isolated. The cannula was introduced into the abdominal aorta through the femoral artery and was used for obtaining the cardiovascular parameters. A second cannula made by connecting 15 cm polyethylene PESO to 2 cm of PE10 polyethylene, filled with saline (0.9% NaCl), was inserted into the femoral vein for administration of peptides. After cannulation, the catheters were secured and exteriorized subcutaneously into the back of the animal, in the cervical region. The incisions were sutured and the animals placed in individual cages, with free access to water and feed. The values of mean arterial pressure (MAP) and heart rate (HR) were calculated from PA pulses and recorded by the data acquisition system (BIOPAC System, Model MP150). The pulsatile arterial pressure (PAP) was recorded by a signal sent to a transducer connected to the cannula inserted into the abdominal aorta via the femoral artery. The pressure oscillations were captured, amplified and converted by an analog/digital conversion board feeding signals to the data acquisition board. Through the card reader software, AcqKnowledge v.3.5.7 (Biopac System), PAP was continuously recorded with a sampling frequency of 2000-4000 Hz. Twenty-four hours after implantation of the cannulas was conducted, the first protocol, which consisted of acute intravenous administration of peptides was performed. For this, during the experiment, the arterial catheter was connected to the pressure transducer for the beginning of the record. After 90 minutes of cardiovascular parameters stabilization (baseline), the administration of the peptides […]-Ang-(1-7), Ang (1-7) or saline in a final volume of 300 uL was given in bolus. […] The Ang-(1-7) also was used to compare the effect induced by each peptide. Doses of 0.1 nmol/kg; 0.5 nmol/kg; 2.5 nmol/kg and 12.5 nmol/kg were administered to SHR (n=5-7 for each dose) while awake. […] After injection of the peptide or saline, cardiovascular parameters were continuously monitored for a period of 5 hours. The values of the MAP and HR were obtained every 10 minutes throughout the experimental period. Results are presented as mean±standard error of the mean. Two-way analysis of variance (ANOVA) with Bonferroni's multiple comparison post-test were used to compare the time-response curve obtained during the bolus administration in […]-Ang-(1-7) and Ang-(1-7). All statistical analyses were considered significant when p<0.05.

awake Wistar rats = experiment: Acute IV bolus administration, MAP and HR in awake Wistar rats; format: in vivo, rat; conditions: IV bolus 0.5 nmol/kg
Method: Wistar and SHR rats were anesthetized with 2.5% tribromoethanol, intraperitoneally (1 mL/100 g). For femoral artery cannulation, cannulas made by connecting 15 cm polyethylene PESO to 4 cm of PE10 polyethylene were used, filled with saline solution (NaCl 0.9%) and heparin (100 IU/0.1 mL). After the animal was placed supine on the operating table, a trichotomy of the right inguinal region of the animal was performed. A small skin incision was made; the femoral neurovascular bundle was located and the femoral artery isolated. The cannula was introduced into the abdominal aorta through the femoral artery and was used for obtaining the cardiovascular parameters. […] The values of mean arterial pressure (MAP) and heart rate (HR) were calculated from PA pulses and recorded by the data acquisition system (BIOPAC System, Model MP150). The pulsatile arterial pressure (PAP) was recorded by a signal sent to a transducer connected to the cannula inserted into the abdominal aorta via the femoral artery. […] Through the card reader software, AcqKnowledge v.3.5.7 (Biopac System), PAP was continuously recorded with a sampling frequency of 2000-4000 Hz. […] After injection of the peptide or saline, cardiovascular parameters were continuously monitored for a period of 5 hours. […]

With Asp-Arg-Val-Tyr-Ile-His-Pro [Ang-(1-7)] the “activation of protein kinase B (AKT)” value (protein kinase B (AKT)) was “triggered the activation of protein kinase B (AKT)”, the “effect on MAP (PAM)” value (conscious SHR; SHR, IV bolus 0.1 nmol/kg) was “did not significantly alter PAM” and the “effect on MAP” value (conscious SHR; SHR, IV bolus 0.5 nmol/kg, vs saline group) was “no significant difference”. The “change in heart rate (FC)” value (conscious SHR; SHR, IV bolus 12.5 nmol/kg, last 30 minutes of the experiment) was “significantly reduced the FC”, the “time after administration at which anti-hypertensive effect was observed” value (conscious SHR; SHR, IV bolus 2.5 and 12.5 nmol/kg) was 110 min and the “effect on MAP” value (conscious SHR; SHR, IV bolus 2.5 and 12.5 nmol/kg, vs saline group) was “significant anti-hypertensive effect”. The “dose comparison of anti-hypertensive effect” value (conscious SHR; SHR, IV bolus 2.5 vs 12.5 nmol/kg) was “more potent at the dose of 2.5 nmol/kg”, the “change in heart rate (CF)” value (conscious SHR; SHR, IV bolus, all doses except 12.5 nmol/kg Ang-(1-7)) was “no change was observed” and the “change in MAP, time- and dose-dependent” value (conscious SHR; awake SHR, acute intravenous, different doses, vs saline group) was “significant reduction in MAP”. The “change in HR” value (awake Wistar rats) was “failed to induce significant changes” and the “change in MAP” value (awake Wistar rats) was “failed to induce significant changes”.

Source: patent US20160122387A1, “Angiotensin Peptide and Pharmaceutical Compositions for Disease Treatment” (UNIVERSIDADE FEDERAL DE MINAS GERAIS - UFMG, priority 2012, published 2016)
